# Key:
# [1] = biological target: mutant G2019S LRRK2 (Homo sapiens (Human), UniProt Q5S007, G2019S); assay: LRRK2 Lantha Screen kinase assay, mutant enzyme; format: biochemical; settings: geometric mean of 2-5 determinations unless otherwise indicated (a: >=6 determinations; b: single determination)
# Procedure: LRRK2 kinase activity was measured using Lantha Screen technology from Invitrogen. GST-tagged truncated LRRK2 from Invitrogen (Cat # PV4874) was incubated with a fluorescein-labeled peptide substrate based upon ezrin/radixin/moesin (ERM), also known as LRRKtide (Invitrogen cat #PR8976A), in the presence of a dose response of compound. Upon completion, the assay was stopped and detected with a terbium labeled anti-phospho-ERM antibody (Invitrogen, cat #PR8975A). […] Aliquots (3.5 μL) of the 100% DMSO dose response were mixed with 46.5 μL water then 1 μL of this mixture was added to the 3 μL substrate mix in the 384-well plate. The kinase reaction was started with 3 μL of a working solution of LRRK2 enzyme at a concentration of 4 μg/mL. […] The reaction was allowed to progress at room temperature for two hours and then stopped with the addition of 7 μL of detection buffer (20 mM Tris pH 7.6, 0.01% NP-40, 0.02% NaN3, 6 mM EDTA with 2 nM terbium labeled anti-phospho-ERM).
# All final concentrations of substrate ATP and enzyme were the same.
# [2] = system: AMPKa1, AMPKa2; assay: ActivX kinase probe assay (human PBMC); format: binding
# [3] = biological target: BTK (Homo sapiens (Human), UniProt Q06187); assay: ActivX kinase probe assay (human PBMC); format: binding; settings: BTK, read-out: percent inhibition
# [4] = biological target: CaMK2g (Homo sapiens (Human), UniProt Q13555); assay: ActivX kinase probe assay (human PBMC); format: binding; settings: CaMK2g, read-out: percent inhibition
# [5] = biological target: CDK2 (Homo sapiens (Human), UniProt P24941); assay: ActivX kinase probe assay (human PBMC); format: binding; settings: CDK2, read-out: percent inhibition
# [6] = biological target: CDK5 (Homo sapiens (Human), UniProt Q00535); assay: ActivX kinase probe assay (human PBMC); format: binding; settings: CDK5, read-out: percent inhibition
# [7] = biological target: FES (Homo sapiens (Human), UniProt P07332); assay: ActivX kinase probe assay (human PBMC); format: binding; settings: FES, read-out: percent inhibition
# [8] = biological target: FGR (Homo sapiens (Human), UniProt P09769); assay: ActivX kinase probe assay (human PBMC); format: binding; settings: FGR, read-out: percent inhibition
# [9] = biological target: FRAP (Homo sapiens (Human), UniProt P42345); assay: ActivX kinase probe assay (human PBMC); format: binding; settings: FRAP, read-out: percent inhibition
# [10] = biological target: IRAK1 (Homo sapiens (Human), UniProt P51617); assay: ActivX kinase probe assay (human PBMC); format: binding; settings: read-out: percent inhibition
# [11] = biological target: JAK1 (Homo sapiens (Human), UniProt P23458); assay: ActivX kinase probe assay (human PBMC); format: binding; settings: JAK1, read-out: percent inhibition
# [12] = biological target: JAK1 domain2 (Homo sapiens (Human), UniProt P23458); assay: ActivX kinase probe assay (human PBMC); format: binding; settings: JAK1 domain2, read-out: percent inhibition
# [13] = biological target: JAK3 domain2 (Homo sapiens (Human), UniProt P52333); assay: ActivX kinase probe assay (human PBMC); format: binding; settings: JAK3 domain2, read-out: percent inhibition
# [14] = biological target: MAP2K1 (Homo sapiens (Human), UniProt Q02750); assay: ActivX kinase probe assay (human PBMC); format: binding; settings: MAP2K1, read-out: percent inhibition
# [15] = biological target: MAP3K3 (Homo sapiens (Human), UniProt Q99759); assay: ActivX kinase probe assay (human PBMC); format: binding; settings: MAP3K3, read-out: percent inhibition
# [16] = biological target: MARK2 (Homo sapiens (Human), UniProt Q7KZI7); assay: ActivX kinase probe assay (human PBMC); format: binding; settings: MARK2, read-out: percent inhibition
# [17] = biological target: MLKL (Homo sapiens (Human), UniProt Q8NB16); assay: ActivX kinase probe assay (human PBMC); format: binding; settings: MLKL, read-out: percent inhibition
# [18] = system: MST4, YSK1; assay: ActivX kinase probe assay (human PBMC); format: binding
# [19] = biological target: NDR1 (Homo sapiens (Human), UniProt Q15208); assay: ActivX kinase probe assay (human PBMC); format: binding; settings: NDR1, read-out: percent inhibition
# [20] = biological target: NEK7 (Homo sapiens (Human), UniProt Q8TDX7); assay: ActivX kinase probe assay (human PBMC); format: binding; settings: NEK7, read-out: percent inhibition
# [21] = biological target: NuaK2 (Homo sapiens (Human), UniProt Q9H093); assay: ActivX kinase probe assay (human PBMC); format: binding; settings: NuaK2, read-out: percent inhibition
# [22] = system: PCTAIRE2, PCTAIRE3; assay: ActivX kinase probe assay (human PBMC); format: binding
# [23] = biological target: PIK3CB (Homo sapiens (Human), UniProt P42338); assay: ActivX kinase probe assay (human PBMC); format: binding; settings: PIK3CB, read-out: percent inhibition
# [24] = biological target: PIK3CD (Homo sapiens (Human), UniProt O00329); assay: ActivX kinase probe assay (human PBMC); format: binding; settings: PIK3CD, read-out: percent inhibition
# [25] = system: PITSLRE; assay: ActivX kinase probe assay (human PBMC); format: binding
# [26] = biological target: PKD2 (Homo sapiens (Human), UniProt Q9BZL6); assay: ActivX kinase probe assay (human PBMC); format: binding; settings: PKD2, read-out: percent inhibition
# [27] = biological target: PKR (Homo sapiens (Human), UniProt P19525); assay: ActivX kinase probe assay (human PBMC); format: binding; settings: PKR, read-out: percent inhibition
# [28] = biological target: PRPK (Homo sapiens (Human), UniProt Q96S44); assay: ActivX kinase probe assay (human PBMC); format: binding; settings: read-out: percent inhibition
# Procedure: Certain of the compounds of the present invention were assessed for kinase selectivity using a commercially available ActiveX targeted kinase probe in which the tissue employed was human peripheral blood mononuclear cells (PBMC). The test compounds were provided to ActivX Biosciences, Inc., 11025 North Torrey Pines Road, Suite 120; LaJolla, Calif., USA 92037. The compounds were run in the ActivX proprietary kinase assay and results were obtained at compound test concentrations of 1 μM (columns 2, 4 and 6) and 0.1 μM (columns 3, 5 and 7). The results as percent inhibition obtained for the compounds of Examples 1, 4 and 217 are provided below in Table 3.
# [29] = system: RSK1, RSK2, RSK3 domain1; assay: ActivX kinase probe assay (human PBMC); format: binding
# [30] = biological target: TAO2 (Homo sapiens (Human), UniProt Q9UL54); assay: ActivX kinase probe assay (human PBMC); format: binding; settings: TAO2, read-out: percent inhibition
# [31] = biological target: ULK3 (Homo sapiens (Human), UniProt Q6PHR2); assay: ActivX kinase probe assay (human PBMC); format: binding; settings: ULK3, read-out: percent inhibition
# [32] = biological target: ZC2/TNIK (Homo sapiens (Human), UniProt Q9UKE5); assay: ActivX kinase probe assay (human PBMC); format: binding; settings: ZC2/TNIK, read-out: percent inhibition
# Sequence of MARK2 (Q7KZI7 whole entry): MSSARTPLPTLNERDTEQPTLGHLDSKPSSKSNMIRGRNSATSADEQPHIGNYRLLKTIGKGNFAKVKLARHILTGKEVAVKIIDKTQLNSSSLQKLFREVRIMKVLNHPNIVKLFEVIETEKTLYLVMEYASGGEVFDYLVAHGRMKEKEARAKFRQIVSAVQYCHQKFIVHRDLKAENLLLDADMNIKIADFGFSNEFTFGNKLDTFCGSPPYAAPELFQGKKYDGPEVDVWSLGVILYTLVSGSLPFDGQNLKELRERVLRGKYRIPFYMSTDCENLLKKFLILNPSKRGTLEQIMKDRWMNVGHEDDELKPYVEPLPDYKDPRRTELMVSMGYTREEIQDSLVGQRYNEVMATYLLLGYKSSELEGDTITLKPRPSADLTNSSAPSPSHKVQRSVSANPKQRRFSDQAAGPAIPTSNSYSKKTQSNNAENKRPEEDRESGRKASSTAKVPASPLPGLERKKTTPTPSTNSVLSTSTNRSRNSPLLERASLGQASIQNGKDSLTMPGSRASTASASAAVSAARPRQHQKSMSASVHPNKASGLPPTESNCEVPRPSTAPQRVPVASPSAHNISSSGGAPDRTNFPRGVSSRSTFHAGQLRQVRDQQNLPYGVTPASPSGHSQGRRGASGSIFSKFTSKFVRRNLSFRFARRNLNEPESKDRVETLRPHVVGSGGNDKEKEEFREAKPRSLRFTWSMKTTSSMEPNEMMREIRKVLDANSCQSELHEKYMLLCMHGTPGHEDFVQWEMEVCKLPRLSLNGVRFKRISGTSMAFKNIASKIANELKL
# Sequence of MAP2K1 (Q02750 whole entry): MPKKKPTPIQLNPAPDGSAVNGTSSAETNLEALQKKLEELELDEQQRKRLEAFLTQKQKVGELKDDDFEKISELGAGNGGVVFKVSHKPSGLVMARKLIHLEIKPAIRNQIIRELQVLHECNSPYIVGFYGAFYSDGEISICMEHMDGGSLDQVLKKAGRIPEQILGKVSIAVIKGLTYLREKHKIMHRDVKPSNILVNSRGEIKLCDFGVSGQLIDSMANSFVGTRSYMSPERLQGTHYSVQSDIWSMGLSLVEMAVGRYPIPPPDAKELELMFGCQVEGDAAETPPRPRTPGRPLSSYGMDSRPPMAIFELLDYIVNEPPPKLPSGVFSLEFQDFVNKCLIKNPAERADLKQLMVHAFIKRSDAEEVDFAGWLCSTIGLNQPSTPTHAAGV
# Sequence of PKR (P19525 whole entry): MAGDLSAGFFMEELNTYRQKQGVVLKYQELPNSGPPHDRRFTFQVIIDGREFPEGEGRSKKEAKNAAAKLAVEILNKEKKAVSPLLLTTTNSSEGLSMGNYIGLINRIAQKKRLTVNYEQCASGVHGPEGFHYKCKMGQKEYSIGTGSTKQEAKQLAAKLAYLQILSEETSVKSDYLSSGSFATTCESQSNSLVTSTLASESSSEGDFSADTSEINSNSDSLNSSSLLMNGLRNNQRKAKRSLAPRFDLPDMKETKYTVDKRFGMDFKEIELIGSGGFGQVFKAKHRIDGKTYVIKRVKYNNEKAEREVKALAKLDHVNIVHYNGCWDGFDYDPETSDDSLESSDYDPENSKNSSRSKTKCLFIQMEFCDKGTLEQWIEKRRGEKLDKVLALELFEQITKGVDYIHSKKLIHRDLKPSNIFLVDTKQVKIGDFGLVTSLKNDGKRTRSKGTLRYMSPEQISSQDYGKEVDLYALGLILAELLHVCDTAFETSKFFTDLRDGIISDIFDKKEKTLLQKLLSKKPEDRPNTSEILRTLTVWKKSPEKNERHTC
# Sequence of NDR1 (Q15208 whole entry): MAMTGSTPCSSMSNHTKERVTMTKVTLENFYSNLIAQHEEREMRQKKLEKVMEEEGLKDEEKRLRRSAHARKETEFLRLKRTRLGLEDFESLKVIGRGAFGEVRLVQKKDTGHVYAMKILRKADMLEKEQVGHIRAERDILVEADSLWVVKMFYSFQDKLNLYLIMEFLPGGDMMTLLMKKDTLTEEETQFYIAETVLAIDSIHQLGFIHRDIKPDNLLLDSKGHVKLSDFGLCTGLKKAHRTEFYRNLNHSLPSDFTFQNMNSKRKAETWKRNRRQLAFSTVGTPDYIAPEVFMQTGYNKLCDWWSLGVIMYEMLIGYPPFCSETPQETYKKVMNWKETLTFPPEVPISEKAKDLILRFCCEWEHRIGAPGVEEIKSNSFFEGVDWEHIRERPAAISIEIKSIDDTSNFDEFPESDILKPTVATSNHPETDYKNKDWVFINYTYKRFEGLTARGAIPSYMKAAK
# Sequence of MAP3K3 (Q99759 whole entry): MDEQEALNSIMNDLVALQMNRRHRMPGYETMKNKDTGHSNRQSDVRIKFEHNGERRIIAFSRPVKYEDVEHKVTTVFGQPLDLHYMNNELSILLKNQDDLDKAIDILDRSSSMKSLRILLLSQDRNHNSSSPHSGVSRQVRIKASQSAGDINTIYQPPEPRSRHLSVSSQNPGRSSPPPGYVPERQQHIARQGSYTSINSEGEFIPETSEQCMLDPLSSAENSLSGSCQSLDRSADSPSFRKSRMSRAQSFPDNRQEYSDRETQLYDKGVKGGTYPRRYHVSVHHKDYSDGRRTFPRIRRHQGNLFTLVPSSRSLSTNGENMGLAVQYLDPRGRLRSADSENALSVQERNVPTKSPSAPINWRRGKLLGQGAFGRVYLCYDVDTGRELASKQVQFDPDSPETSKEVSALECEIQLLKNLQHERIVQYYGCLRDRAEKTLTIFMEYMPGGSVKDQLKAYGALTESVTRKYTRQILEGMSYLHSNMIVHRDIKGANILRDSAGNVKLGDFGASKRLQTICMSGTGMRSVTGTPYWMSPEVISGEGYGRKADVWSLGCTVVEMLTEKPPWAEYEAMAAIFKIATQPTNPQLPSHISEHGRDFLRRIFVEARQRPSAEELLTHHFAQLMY
# Sequence of MLKL (Q8NB16 whole entry): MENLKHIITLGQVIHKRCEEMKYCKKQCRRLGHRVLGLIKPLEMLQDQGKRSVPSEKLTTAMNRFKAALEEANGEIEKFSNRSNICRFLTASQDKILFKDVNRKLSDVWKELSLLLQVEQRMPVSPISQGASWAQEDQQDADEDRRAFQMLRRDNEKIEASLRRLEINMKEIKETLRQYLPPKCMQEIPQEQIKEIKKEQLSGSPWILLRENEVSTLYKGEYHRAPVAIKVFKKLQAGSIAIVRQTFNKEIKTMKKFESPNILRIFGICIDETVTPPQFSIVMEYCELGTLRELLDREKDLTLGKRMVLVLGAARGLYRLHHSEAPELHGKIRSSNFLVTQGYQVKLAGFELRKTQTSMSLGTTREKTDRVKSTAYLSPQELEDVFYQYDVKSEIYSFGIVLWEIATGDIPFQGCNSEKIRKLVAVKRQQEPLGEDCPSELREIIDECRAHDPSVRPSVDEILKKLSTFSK
# Sequence of NuaK2 (Q9H093 whole entry): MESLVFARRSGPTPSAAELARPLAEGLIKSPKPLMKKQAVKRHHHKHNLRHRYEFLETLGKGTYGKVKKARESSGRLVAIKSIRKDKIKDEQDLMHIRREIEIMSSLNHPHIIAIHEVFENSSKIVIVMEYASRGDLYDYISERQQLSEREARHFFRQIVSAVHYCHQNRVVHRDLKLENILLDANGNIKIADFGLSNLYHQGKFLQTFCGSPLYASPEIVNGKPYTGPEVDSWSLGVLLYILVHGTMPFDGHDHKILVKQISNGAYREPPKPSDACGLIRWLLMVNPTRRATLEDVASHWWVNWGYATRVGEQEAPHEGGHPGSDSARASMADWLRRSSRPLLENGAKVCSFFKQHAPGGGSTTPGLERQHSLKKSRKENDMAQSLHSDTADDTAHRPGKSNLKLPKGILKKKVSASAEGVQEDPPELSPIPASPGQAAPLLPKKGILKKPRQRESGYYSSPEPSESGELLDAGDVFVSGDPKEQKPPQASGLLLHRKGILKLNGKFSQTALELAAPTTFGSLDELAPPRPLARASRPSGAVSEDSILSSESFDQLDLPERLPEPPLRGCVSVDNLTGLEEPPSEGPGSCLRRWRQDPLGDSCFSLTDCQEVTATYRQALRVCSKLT
# Sequence of NEK7 (Q8TDX7 whole entry): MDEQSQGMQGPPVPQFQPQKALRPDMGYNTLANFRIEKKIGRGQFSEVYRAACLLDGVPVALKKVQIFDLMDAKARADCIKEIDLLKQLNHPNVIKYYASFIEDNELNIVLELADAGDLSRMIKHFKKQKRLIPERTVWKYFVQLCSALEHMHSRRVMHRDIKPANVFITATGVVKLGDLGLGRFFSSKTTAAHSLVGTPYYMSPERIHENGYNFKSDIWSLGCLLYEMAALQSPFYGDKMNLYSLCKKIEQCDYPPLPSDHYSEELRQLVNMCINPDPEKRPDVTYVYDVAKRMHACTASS
# Sequence of BTK (Q06187 whole entry): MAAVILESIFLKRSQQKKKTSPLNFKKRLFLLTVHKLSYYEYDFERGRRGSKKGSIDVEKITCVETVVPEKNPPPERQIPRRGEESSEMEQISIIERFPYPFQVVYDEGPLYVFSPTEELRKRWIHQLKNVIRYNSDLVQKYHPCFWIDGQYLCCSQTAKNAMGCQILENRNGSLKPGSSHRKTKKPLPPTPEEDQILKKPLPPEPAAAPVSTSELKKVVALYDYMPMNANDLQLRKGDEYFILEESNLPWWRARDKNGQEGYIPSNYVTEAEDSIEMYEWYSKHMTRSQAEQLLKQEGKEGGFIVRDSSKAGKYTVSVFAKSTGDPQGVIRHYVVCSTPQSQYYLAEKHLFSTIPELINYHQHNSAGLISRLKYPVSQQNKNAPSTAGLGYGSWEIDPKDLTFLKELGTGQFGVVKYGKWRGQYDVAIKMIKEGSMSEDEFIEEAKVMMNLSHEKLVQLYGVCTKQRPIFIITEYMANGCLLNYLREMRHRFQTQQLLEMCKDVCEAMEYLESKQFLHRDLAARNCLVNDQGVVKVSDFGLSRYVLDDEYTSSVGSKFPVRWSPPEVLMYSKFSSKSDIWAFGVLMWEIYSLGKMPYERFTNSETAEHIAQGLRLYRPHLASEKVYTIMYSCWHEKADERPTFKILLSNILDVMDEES
compound,measurement,setting,value
"Cn1cc(-c2c[nH]c3ncnc(N4CCOCC4)c23)cn1 [Example 1, 5-(1-Methyl-1H-pyrazol-4-yl)-4-(morpholin-4-yl)-7H-pyrrolo[2,3-d]pyrimidine]",IC50,[1],36 nM
same,percent inhibition,[2]; 0.1 μM,10.8%
same,percent inhibition,[2]; 1 μM,49.7%
same,inhibition at 0.1 µM,[3]; 0.1 μM,8.7%
same,inhibition at 1 µM,[3]; 1 μM,3.7%
same,inhibition at 0.1 µM,[4]; 0.1 μM,-16.9%
same,inhibition at 1 µM,[4]; 1 μM,-15.5%
same,inhibition at 0.1 µM,[5]; 0.1 μM,-12.1%
same,inhibition at 1 µM,[5]; 1 μM,9.5%
same,inhibition at 0.1 µM,[6]; 0.1 μM,-6.5%
same,inhibition at 1 µM,[6]; 1 μM,-35.1%
same,inhibition at 0.1 µM,[7]; 0.1 μM,4.3%
same,inhibition at 1 µM,[7]; 1 μM,-0.9%
same,inhibition at 0.1 µM,[8]; 0.1 μM,12.9%
same,inhibition at 1 µM,[8]; 1 μM,4.6%
same,inhibition at 0.1 µM,[9]; 0.1 μM,-3.2%
same,inhibition at 1 µM,[9]; 1 μM,-1.2%
same,inhibition at 1 µM,"[10]; IRAK1, 1 μM",-9.1%
same,inhibition at 0.1 µM,[10],-13.8%
same,inhibition at 0.1 µM,[11]; 0.1 μM,15%
same,inhibition at 1 µM,[11]; 1 μM,54.2%
same,inhibition at 0.1 µM,[12]; 0.1 μM,-8.1%
same,inhibition at 1 µM,[12]; 1 μM,-13.7%
same,inhibition at 0.1 µM,[13]; 0.1 μM,2.7%
same,inhibition at 1 µM,[13]; 1 μM,-5.2%
same,inhibition at 0.1 µM,[14]; 0.1 μM,3.5%
same,inhibition at 1 µM,[14]; 1 μM,17%
same,inhibition at 0.1 µM,[15]; 0.1 μM,-9.2%
same,inhibition at 1 µM,[15]; 1 μM,7.2%
same,inhibition at 0.1 µM,[16]; 0.1 μM,10.1%
same,inhibition at 1 µM,[16]; 1 μM,41.6%
same,inhibition at 0.1 µM,[17]; 0.1 μM,1.6%
same,inhibition at 1 µM,[17]; 1 μM,8.4%
same,percent inhibition,[18]; 0.1 μM,−11.4%
same,percent inhibition,[18]; 1 μM,15.1%
same,inhibition at 0.1 µM,[19]; 0.1 μM,-19.6%
same,inhibition at 1 µM,[19]; 1 μM,-7.8%
same,inhibition at 0.1 µM,[20]; 0.1 μM,-0.6%
same,inhibition at 1 µM,[20]; 1 μM,-18.8%
same,inhibition at 0.1 µM,[21]; 0.1 μM,3.6%
same,inhibition at 1 µM,[21]; 1 μM,8.9%
same,percent inhibition,[22]; 0.1 μM,7.5%
same,percent inhibition,[22]; 1 μM,−2.5%
same,inhibition at 0.1 µM,[23]; 0.1 μM,-2.6%
same,inhibition at 1 µM,[23]; 1 μM,-29.8%
same,inhibition at 0.1 µM,[24]; 0.1 μM,-102%
same,inhibition at 1 µM,[24]; 1 μM,-65.4%
same,percent inhibition,[25]; 0.1 μM,−13%
same,percent inhibition,[25]; 1 μM,−3.2%
same,inhibition at 0.1 µM,[26]; 0.1 μM,2.7%
same,inhibition at 1 µM,[26]; 1 μM,20.1%
same,inhibition at 0.1 µM,[27]; 0.1 μM,-4.3%
same,inhibition at 1 µM,[27]; 1 μM,-17.3%
same,inhibition at 0.1 µM,[28]; 0.1 μM,-3.4%
same,inhibition at 1 µM,[28]; 1 μM,-13.8%
same,percent inhibition,[29]; 0.1 μM,3%
same,percent inhibition,[29]; 1 μM,18.7%
same,inhibition at 0.1 µM,[30]; 0.1 μM,-6.3%
same,inhibition at 1 µM,[30]; 1 μM,-24.2%
same,inhibition at 0.1 µM,[31]; 0.1 μM,-1.9%
same,inhibition at 1 µM,[31]; 1 μM,8%
same,inhibition at 0.1 µM,[32]; 0.1 μM,-10.6%
same,inhibition at 1 µM,[32]; 1 μM,31.2%

# — patent US9156845B2, “4-(substituted amino)-7H-pyrrolo[2,3-d] pyrimidines as LRRK2 inhibitors” (Pfizer Inc., priority 2012, dated 2015)
